The text below walks through data of PMC7168710, “Antibacterial Activity of Rationally Designed Antimicrobial Peptides” (International Journal of Microbiology, 2020).

≈ marks a conversion by molar mass, not a printed value.

A word on the MIC: it is the lowest concentration found to suppress growth.

The subject of series [1] is methicillin-resistant S. aureus (ATCC 33591). Kind of series: Microtiter broth dilution MIC, MRSA. The class given is cell-based, Staphylococcus aureus. As to conditions: for MIC, MRSA: microtiter broth dilution (CLSI), TSB, 0.5 McFarland, 24 h 37°C, INT 3 h, absorbance 620 nm, MIC = about 90% killing of inoculum, triplicate, repeated three times; for Sensitivity of MRSA (ATCC 33591) to the peptide: microtiter screening, up to 500 μg/ml. The procedure: (§1) The antibacterial activity of the putative antimicrobial peptides was carried out on Staphylococcus aureus spp., a Gram-positive bacterium obtained from the American Type Culture Collection (ATCC), with the S. aureus spp. comprising of the methicillin-sensitive S. aureus (ATCC 25923) and the methicillin-resistant S. aureus (ATCC 33591) strains. The other bacterial strains tested were K. pneumoniae (ATCC 700603) and P. aeruginosa (ATCC 22108) which are Gram-negative bacteria.
(§2) A stock solution of AMPs was prepared by dissolving an amount of AMPs in sterile distilled water (dH2O), and the various AMP working concentrations used in the microtiter broth dilution assay were prepared in two-fold serial dilutions starting at a concentration of 500 μg/ml to 1.5625 μg/ml. Ampicillin was utilized as the positive control in this assay and a working stock solution of 100 μg/ml was prepared in distilled water.
(§3) The microtiter broth dilution method was employed to measure the antibacterial activity of the AMP's. The assay was performed according to the standards and guidelines as stipulated in the Clinical and Laboratory Standards Institute (CLSI). In brief, the test microorganisms (MRSA (ATCC 33591), MSSA (ATCC 25923), K. pneumoniae (ATCC 700603), and P. aeruginosa (ATCC 22108)) were grown to the midlogarithmic phase in Tryptic Soy Broth (TSB) on a shaker set at 37°C and shaking at 150 rpm. The turbidity was adjusted to a 0.5 McFarland standard with a final volume of 10 ml. From the stock of prepared AMP solutions, various working peptide concentrations (500 μg/ml to 1.5625 μg/ml) were prepared, and a mixture of the bacteria with the peptides was incubated in a 96 well flat bottom plate for 24 h at 37°C. Following 24 h incubation, 40 μl of 2-(4-iodophenyl)-3-(4-nitrophenyl)-5-phenyl-2H-tetrazolium (INT) was added to each well and incubated again for 3 h. Absorbance readings were taken at 620 nm on a microtiter plate reader (Omega®POLARstar BMG Labtech, USA).
(§4) All the antibacterial assays of the AMPs were prepared in triplicate, and the experiments were repeated three times to ensure the reproducibility of the testing. Absorbance results were exported into an Excel file, where they were transformed into a percentage, in a Normalizing process. The MIC of each peptide was defined as the concentration resulting in about 90% killing of the initial inoculums.
Background: Dilution methods test growth across graded concentrations, often in twofold steps.

The subject of series [2] is methicillin-sensitive S. aureus (ATCC 25923). Kind of series: Microtiter broth dilution MIC, MSSA. The class given is cell-based, Staphylococcus aureus. As to conditions: for MIC, MSSA: microtiter broth dilution (CLSI), TSB, 0.5 McFarland, 24 h 37°C, INT 3 h, absorbance 620 nm, MIC = about 90% killing of inoculum, triplicate, repeated three times; for Sensitivity of MSSA (ATCC 25923) to the peptide: microtiter screening, up to 500 μg/ml. Here is the method: as §1, §2, §3, §4

Series [3] concerns K. pneumoniae (ATCC 700603). Kind of series: Microtiter broth dilution MIC, K. pneumoniae. The class given is cell-based, Klebsiella pneumoniae. As to conditions: for MIC, K. pneumoniae: microtiter broth dilution (CLSI), TSB, 0.5 McFarland, 24 h 37°C, INT 3 h, absorbance 620 nm, MIC = about 90% killing of inoculum, triplicate, repeated three times. Here is the method:
as §1, §2, §3, §4

For series [4], the system named is P. aeruginosa (ATCC 22108). Kind of series: Microtiter broth dilution MIC, P. aeruginosa. The class given is cell-based, Pseudomonas aeruginosa. As to conditions: for MIC, P. aeruginosa: microtiter broth dilution (CLSI), TSB, 0.5 McFarland, 24 h 37°C, INT 3 h, absorbance 620 nm, MIC = about 90% killing of inoculum, triplicate, repeated three times. The procedure:
as §1, §2, §3, §4

The subject of series [5] is P. aeruginosa (ATCC 22108). Kind of series: Growth inhibitory assay (time curve, OD620), P. aeruginosa. It is filed as cell-based, Pseudomonas aeruginosa. The following applies: for Growth inhibition of P. aeruginosa over time: OD620 measured 3 to 8 h after treatment, 96-well plates, different peptide concentrations (25 μg/ml and lower). The procedure: (§5) The growth curves for K. pneumoniae (ATCC 700603) and P. aeruginosa (ATCC 22108) treated with Molecule 3 and Molecule 7 over time were determined based on measurements taken at 620 nm at each collection time. Different concentrations of the peptide were added to the tested strains (K. pneumonia and P. aeruginosa), which were cultured in 96 well plates using the same method as used for the determination of the antimicrobial activity of the AMPs and the MIC.
(§6) In addition to the determined MICs, we investigated the rate at which the peptides influence the bacterial growth over time (Figures 1 and 2). The OD620 was measured from 3 to 8 h after treatment with a microplate reader, with Ampicillin as a positive control.

Series [6] concerns K. pneumoniae (ATCC 700603). Kind of series: Growth inhibitory assay (time curve, OD620), K. pneumoniae. The class given is cell-based, Klebsiella pneumoniae. The following applies: for Growth inhibition of K. pneumoniae over time: OD620 measured 3 to 8 h after treatment, 96-well plates, different peptide concentrations (25 μg/ml and lower). Here is the method: as §5, §6
Series [7] has as its system HepG2 cell line. Kind of series: MTT cytotoxicity assay, HepG2. The following applies: 48 h treatment; for cell lines inhibition, HepG2: 25 μg/ml peptide; for Cell viability, HepG2: 100 μg/ml peptide, one value given for both peptides, repeated three times. It is filed as cell-based, human. The procedure: (§7) The cytotoxicity activity of the AMPs was measured by using the 3-(4,5-dimethylthiazol-2-yl)-2,5- diphenyltetrazolium bromide (MTT) assay as described by Freimoser. In brief, after the trypsinisation of HEK293T and HepG2 cells, 1 × 10^4 cells/well were seeded in a 96-well sterile plate and grown to confluence in Dulbecco's modified Eagle's medium containing 10% fetal calf serum. Molecule 3 and Molecule 7 were each added to the wells at different concentrations (10 μg/ml, 25 μg/ml, 50 μg/ml, and 100 μg/ml). Cells treated with 6% DMSO served as positive control. After 48 h after treatment with the peptides, 20 μl of MTT solution was added to each well, and the plates were incubated in a humidified incubator for 3 h in 5% CO2 at 37°C. After incubation, the media was removed and dimethyl sulfoxide (DMSO) (100 μl per well) was added into each well and the plate was again incubated in a shaker at 37°C, 5% CO2 incubator for 10 min. The plates were gently swirled for 10 min at room temperature to dissolve the precipitate. The absorbance was determined using a multiplate reader (Omega®POLARstar BMG Labtech, USA) at a wavelength of 570 nm, 600 nm, and 630 nm.
(§8) The assay was repeated three times to confirm the reproducibility of the experiment. The final absorbance of the treated cells was obtained by subtracting the background absorbance of the multi-well plate at 630 nm and from the 570 nm measurements. The percentage cell viability was calculated using the following formulae:(1) Cell viability %=OD570−OD630Treated sample/OD570−OD630Untreated control×100.
(§9) Absorbance results were exported into an Excel file, where they were transformed into a percentage, in a process called normalizing.

The test system of series [8] is HEK293T cell line. Kind of series: MTT cytotoxicity assay, HEK293T. It is filed as cell-based, human. The following applies: 48 h treatment; for cell lines inhibition, HEK293T: 25 μg/ml peptide; for Cell viability, HEK 293T: 100 μg/ml peptide, one value given for both peptides, repeated three times. Here is the method: as §7, §8, §9
[9] abbreviates: 100 μg/ml, OD620 time curve 3 to 8 h.

As for “RWKLFKKIEKVGRNVRDGLIKAGPAIAVIGQAKSLGK [Molecule 3, putative anti-HIV antimicrobial peptide, chemically synthesized by solid-phase method]”, in series [1], the “MIC, MRSA” value was more than 500 µg/mL and the “Sensitivity of MRSA (ATCC 33591) to the peptide” value is “insensitive”. In series [2], the “MIC, MSSA” value was more than 500 µg/mL and the “Sensitivity of MSSA (ATCC 25923) to the peptide” value is recorded as “insensitive”. Moreover, the “MIC, K. pneumoniae” value in series [3] is 12.5 µg/mL. The “MIC, P. aeruginosa” value in series [4] stood at 6.25 µg/mL. For the same molecule, in series [5], the “Growth inhibition of P. aeruginosa over time” value was “able to inhibit P. aeruginosa at all the concentrations and for the duration of the experiment”. For the same molecule, the “Growth inhibition of K. pneumoniae over time” value in series [6] is “able to suppress the growth of K. pneumoniae (ATCC 700603) at concentrations equal to the MIC (12.5 μg/ml) and 2x MIC”. Moreover, the “Period of growth suppression of K. pneumoniae” value in series [6] (peptide concentration 6.25 μg/ml, OD620 time curve) is listed as 4 h. In series [7], the “cell lines inhibition, HepG2” value is recorded as “more than 90%” and the “Cell viability, HepG2” value stood at 79.5%. Besides, in series [8], the “cell lines inhibition, HEK293T” value is on record as “more than 90%” and the “Cell viability, HEK 293T” value was found to be 59.29%.
For the molecule “CLKSGAICHPVFCPRRYKQIGTCGLPGTKCCKKP [Molecule 8, putative anti-HIV antimicrobial peptide, chemically synthesized by solid-phase method]”, in series [1], the “MIC, MRSA” value was more than 500 µg/mL. Further, in series [2], the “MIC, MSSA” value was more than 500 µg/mL. Also, the “MIC, K. pneumoniae” value in series [3] was more than 500 µg/mL. In addition, in series [4], the “MIC, P. aeruginosa” value was more than 500 µg/mL.
As to `CC1(C)S[C@@H]2[C@H](NC(=O)[C@H](N)c3ccccc3)C(=O)N2[C@H]1C(=O)O` [Ampicillin, reference compound], the MIC in series [1] (Staphylococcus aureus, read-out: MIC, MRSA) was more than 100 µg/mL; in series [2] (Staphylococcus aureus, read-out: MIC, MSSA), more than 100 µg/mL; in series [3] (Klebsiella pneumoniae, ATCC700603, read-out: MIC, K. pneumoniae) it was more than 100 µg/mL; in series [4] (Pseudomonas aeruginosa, ATCC22108, read-out: MIC, P. aeruginosa) it was 100 µg/mL (≈ 286 µM). Also, the “Growth inhibition of P. aeruginosa, positive control” value in series [5] (setting [9]) is “could inhibit the growth”. In addition, the “Growth inhibition of K. pneumoniae, positive control” value in series [6] (setting [9]) is “failed to inhibit the growth”.
For “CLRYKKPECQSDWQCPGKKRCCPDTCGIKCLDPVDTPNPTRRKPGKCPVTYGQCLMLNPPNFCEMDGQCKRDLKCCMGM [Molecule 1, putative anti-HIV antimicrobial peptide, chemically synthesized by solid-phase method]”, the “MIC, MRSA” value in series [1] was more than 500 µg/mL. Besides, the “MIC, MSSA” value in series [2] was more than 500 µg/mL. Besides, the “MIC, K. pneumoniae” value in series [3] was determined as 500 µg/mL. For the same molecule, the “MIC, P. aeruginosa” value in series [4] was more than 500 µg/mL.
Consider “RWKIFKKIEKMGRNIRDGIVKAGPAIEVLGSAKAIGK [Molecule 7, putative anti-HIV antimicrobial peptide, chemically synthesized by solid-phase method]”, for which, in series [1], the “MIC, MRSA” value was more than 500 µg/mL and the “Sensitivity of MRSA (ATCC 33591) to the peptide” value was “insensitive”. Moreover, in series [2], the “MIC, MSSA” value was more than 500 µg/mL and the “Sensitivity of MSSA (ATCC 25923) to the peptide” value is recorded as “insensitive”. The “MIC, K. pneumoniae” value in series [3] is 12.5 µg/mL. In addition, the “MIC, P. aeruginosa” value in series [4] came to 6.25 µg/mL. Besides, the “Growth inhibition of P. aeruginosa over time” value in series [5] is reported as “could not inhibit P. aeruginosa growth at concentrations lower than the MIC”. Further, the “Growth inhibition of K. pneumoniae over time” value in series [6] was “could not suppress the growth of K. pneumoniae (ATCC 700603) at concentrations lower than the respective MIC values”. Also, in series [7], the “cell lines inhibition, HepG2” value was “more than 90%” and the “Cell viability, HepG2” value is on record as 79.5%. Further, in series [8], the “cell lines inhibition, HEK293T” value is “more than 90%” and the “Cell viability, HEK 293T” value worked out at 59.29%.
On to “WNPFKELEKAGQRVRDAIISAKPAVDVVGQATAIIK [Molecule 10, putative anti-HIV antimicrobial peptide, chemically synthesized by solid-phase method]”, for which the “MIC, MRSA” value in series [1] is more than 500 µg/mL. Moreover, the “MIC, MSSA” value in series [2] was more than 500 µg/mL. The “MIC, K. pneumoniae” value in series [3] came out at 500 µg/mL. In series [4], the “MIC, P. aeruginosa” value is more than 500 µg/mL.
